Values joined by “and” are separate entries in the source; they are usually repeats but may differ in a detail not shown here. Identical values can stand only once. Counter-ions that a name gives are not always drawn.

For series [1] the following is noted: acid; cited from earlier work.
Series [2] can be described thus: pKa of the free base compound. In kind it is physicochemical.
A short description of series [3]: Solubility study of Example 0 in solvents (volumes needed to dissolve the solid). In kind it is physicochemical. The protocol:
Previously a solubility study was performed with compound Example 0. The results are shown in Table 1 wherein number of volumes needed to dissolve the solid in the corresponding solvent at room temperature is shown. If at 50 volumes, dissolution was not observed at room temperature, mixture was heated to reflux temperature.

Series [4] is described as follows: Thermodynamic solubility at pH 7.4. In kind it is physicochemical. Particulars: maleate. The protocol:
General protocol for thermodynamic solubility at pH 7.4 and pH 2 are described. • A) Thermodynamic Solubility at pH 7.4
Phosphate buffer at pH 7.4 (25 mM) was prepared as follows:
A solution 25 mM of Na2HPO4.12H2O (for 1 L of water, weight 8.96 g) was prepared
A solution 25 mM de KH2PO4 (for 1 L of water weight 3.4 g) was prepared.
Disodium phosphate solution (812 mL) and potassium phosphate (182 mL) solution were mixed and pH checked to be 7.4.
Equipment • Precision analytical balance Mettler Toledo AT20. • Analytical balance Mettler Toledo PJ300. • Liquid chromatograph Waters Alliance 2695. • Stirrer Thermomixer Control of Eppendorf a 25° C. y 1250 rpm • pHmeter with combined semi-micro electrode.
Around 4 mg of compound in an HPLC vial (by duplicate) was dissolved in 1 mL of buffer solution. After stirring in Thermomixer Comfort system for 24 hours at 25° C., in order to achieve thermodynamic equilibrium, solution was centrifuged at 3000 rpm for 15 minutes.
The resulting upper layer was collected with a glass pipette and transferred to the HPLC vials in order to inject them (10 μL) directly to the HPLC instrument.
Standards were made in methanol to ensure overall compound solubility. Preparation of standard calibrators is illustrated below:
Sol.A: 4 mg in 1 mL methanol (4000 μg/mL)
Sol.B: 0.5 mL Sol.A to 5 mL with methanol (400 μg/mL)
Sol.C: 1 mL Sol.B to 10 mL with methanol (40 μg/mL)
Sol.D: 5 mL […] to 50 mL with methanol (4 μg/mL)
Sol.E: 4 mL Sol.D to 10 mL with methanol (1.6 μg/mL)
Calibration curve was created through 10 μL injection of standards, beginning with the more diluted standard. Blanks were also injected, for checking the absence of contamination.
10 μl of test substance were injected, by duplicate, and the average peak area interpolated in the calibration curve (see Tables Examples below).
Chromatographic Conditions • Column: XBridge C18 (or similar) 2.5 μm 4.6×50 mm • Temperature: 35° C. • Mobile phase: ACN/ammonium bicarbonate 10 mM. • Gradient: 0-3.5 min: from 15% CAN to 95% CAN • 3.5-5 min: 95% ACN • 5-6 min: 95 a 15% ACN • 6-8 min: 15% ACN • Flow: 1.5 mL/min • Detection: around the maximum UV wavelength. • B) Thermodynamic Solubility at pH 2

Series [5] can be described thus: Pharmacokinetics after single oral administration to male Wistar rat. The class given is in vivo. The protocol: The pharmacokinetics of Example 1 and 2 were tested using the following protocol:
Male Wistar rats weighing 250 to 300 g (±20) supplied by Harlan were used. Water and food was available ad libitum throughout the study.
Administration and Sample Collection
Two rats (R1 and R2) were used in the pharmacokinetic oral studies.
A single dose of tested compound was administered by oral gavage [10 mg/kg as free base (Example 0)] in 0.5% hydroxypropyl methylcellulose (1 mg/ml). From each rat, serial blood samples were collected at 15 and 30 min, 1, 2, 3, 5, 7 and 24 h.
Blood was collected from the saphenous veins into heparinized tubes. Plasma was obtained by blood centrifugation at 4° C. and 2280×g for 10 min and kept at −80° C. until analysis.
Tested compound concentration in plasma samples was determined by least-squares linear regression using a ten-point calibration curve. The calibration curve was prepared in blank plasma from a working solution of 1 mg/ml in DMSO.
Samples were thawed at room temperature on the day of analysis. After plasma protein precipitation of samples and calibration standards with acetonitrile (1:4.3; v/v), the mixture was vortexed and centrifuged (4° C. and 16090×g for 10 min).
Tested compound plasma concentrations were determined by high performance liquid chromatography-triple quadrupole mass spectrometry (HPLC-MS/MS) through the following method:
Column: Atlantis® T3 column (2.1×100 mm, 3 μm) (Waters).
Mobile phase: A: 0.0155% Formic water • B: 0.0155% Formic Acetonitrile
Autosampler wash: Solvent 1:Acetonitrile • Solvent 2: 5% Acetonitrile+95% Water
Standard pharmacokinetic parameters, such as area under the curve (AUC), peak plasma concentration (Cmax), time to peak concentration (tmax), oral bioavailability (F), total plasma clearance (Cl), volume of distribution at steady-state (Vss), mean residence time (MRT) and terminal half-life (t1/2), were determined by non-compartmental analysis of the plasma concentration-time curves (Phoenix v. 6.2.1.51, Pharsight, C A).

Setting [6] is: animal 1, 10 mg/kg oral, maleate.
The mark [7] stands for this setting: animal 2, 10 mg/kg oral, maleate.
Setting [8] is: mean of 2 rats, 10 mg/kg oral, listed as example 2, maleate, 10 mg/kg.
[9] abbreviates: mean of 2 rats, 10 mg/kg oral, maleate, 10 mg/kg.

`CC(=O)N1CCN(CCOCc2ccn(-c3ccc(F)c(F)c3)n2)CC1` (as salt: hydrochloride) [Example 1]: the melting point (in general, the temperature, or range, at which the solid turns liquid) was in the range of 155 to 157 °C.
The same measure, in the same setting: for `CC(=O)N1CCN(CCOCc2ccn(-c3ccc(F)c(F)c3)n2)CC1` (as salt: maleate) [Example 2] the value was 160 to 162 °C.
For `O=S(=O)(O)c1ccccc1` [Benzensulphonic acid], the pKa1 in series [1] is 0.7.
Regarding `CCCCCCCCCC(=O)O` [Capric acid], the pKa1 in series [1] is reported as 4.9.
As to `CCCCCC(=O)O` [Caproic acid], in series [1], the pKa1 is 4.88.
Take `CCCCCCCC(=O)O` [Caprylic acid]: the pKa1 in series [1] is on record as 4.89.
For `CCS(=O)(=O)O` [Ethanesulfonic acid], in series [1], the pKa1 is reported as 2.05.
With `CC(=O)N1CCN(CCOCc2ccn(-c3ccc(F)c(F)c3)n2)CC1` [Example 0, 1-(4-(2-((1-(3,4-difluorophenyl)-1H-pyrazol-3-yl)methoxy)ethyl)piperazin-1-yl)ethanone], in series [2], the pKa (as a rule, the pH at which an ionisable group is half protonated) was determined as 6.37. For the same compound, the “number of volumes needed to dissolve the solid” value is 3 volumes in series [3] (CH2Cl2, room temperature); 15 volumes in series [3] (CH3CN, room temperature); 4 volumes in series [3] (EtOH, room temperature); > 50^[1] volumes in series [3] (H2O, room temperature, heated to reflux at 50 volumes, no dissolution observed); 17 volumes in series [3] (MIBK, room temperature); 4 volumes in series [3] (THF, room temperature).
As for `CC(=O)N1CCN(CCOCc2ccn(-c3ccc(F)c(F)c3)n2)CC1` [Example 2, maleate], the “Conc. Mean” value in series [4] (pH 7.4, mean of 4 injections) was found to be 4468.706 µg/mL. In addition, the Conc. in series [4] (pH 7.4, single HPLC injections of duplicate vials) is 4593.8 µg/mL and 4408.7 µg/mL and 4338.8 µg/mL and 4533.6 µg/mL. Also, the AUC (as a rule, concentration integrated over time) in series [5] (setting [6]) was 2227 ng·h/mL; in series [5] (setting [7]), 1768 ng·h/mL; in series [5] (setting [8]), around 2000 ng·h/mL; in series [5] (setting [9]), 1997 ng·h/mL. Besides, the Cmax (usually the peak of the concentration-time curve) in series [5] (setting [6]) stood at 1386 ng/mL; in series [5] (setting [7]), 1039 ng/mL. For the same compound, the results for the t1/2 in series [5] (setting [6]) and in series [5] (setting [7]) were 1.7 h and 1.2 h, respectively. The F is 50% in series [5] (animal 1, 10 mg/kg oral, mean AUC after i.v. administration used for calculation, maleate) and 40% in series [5] (animal 2, 10 mg/kg oral, mean AUC after i.v. administration used for calculation, maleate). The tmax is 30 min in series [5] (setting [7]), 22.8 min in series [5] (setting [8]) and 24 min in series [5] (setting [9]). The “t1/2 (terminal half-life)” value in series [5] (setting [9]) is listed as 1.5 h. In addition, in series [5] (mean of 2 rats, 10 mg/kg oral, mean AUC after i.v. administration used for calculation, maleate, 10 mg/kg), the “F (oral bioavailability)” value is 45%. In addition, the Plasma concentration in series [5] (rat R1, 0.5 h, 10 mg/kg oral, maleate, 10 mg/kg) is 1251 ng/mL; in series [5] (rat R1, 1 h, 10 mg/kg oral, maleate, 10 mg/kg), 907 ng/mL; in series [5] (rat R1, 2 h, 10 mg/kg oral, maleate, 10 mg/kg) it was 289 ng/mL; in series [5] (rat R1, 3 h, 10 mg/kg oral, maleate, 10 mg/kg), 157 ng/mL; in series [5] (rat R1, 5 h, 10 mg/kg oral, maleate, 10 mg/kg) it was 45 ng/mL; in series [5] (rat R1, 7 h, 10 mg/kg oral, maleate, 10 mg/kg), 41 ng/mL. For the same compound, the Plasma concentration in series [5] (rat R2, 0.5 h, 10 mg/kg oral, maleate, 10 mg/kg) is 1039 ng/mL; in series [5] (rat R2, 1 h, 10 mg/kg oral, maleate, 10 mg/kg), 639 ng/mL; in series [5] (rat R2, 2 h, 10 mg/kg oral, maleate, 10 mg/kg), 317 ng/mL; in series [5] (rat R2, 3 h, 10 mg/kg oral, maleate, 10 mg/kg) it was 95 ng/mL; in series [5] (rat R2, 5 h, 10 mg/kg oral, maleate, 10 mg/kg), 75 ng/mL; in series [5] (rat R2, 7 h, 10 mg/kg oral, maleate, 10 mg/kg) it was 13 ng/mL.
Regarding `Br` [Hydrobromic acid], the pKa1 result in series [1] is listed as “Strong”.
`O=[N+]([O-])O` [Nitric acid]: the pKa1 result in series [1] is “Strong”.

Values taken from US10640468B2, “1-(4-(2-((1-(3,4-difluorophenyl)-1H-pyrazol-3-Yl)methoxy)ethyl)piperazin-1- Yl)ethanone salts” (ESTEVE PHARMACEUTICALS S.A., priority 2015, dated 2020).
